The source made the active and inactive calls.
Key:
[1] = biological target: Potassium channel subfamily K member 9 (Homo sapiens, UniProt Q9NPC2); experiment: KCNK9 flux blockade, concentration-response – cell-based, FluxOR thallium flux, selectivity assay for TASK1 inhibitor project, SAR follow-up (AID 652211); type: functional;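 further: potency is for inhibitors of the channel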
[2] = biological target: T1, Histone-lysine N-methyltransferase NSD2 (Homo sapiens, UniProt O96028); type: biochemical
T1 sequence (O96028 whole entry): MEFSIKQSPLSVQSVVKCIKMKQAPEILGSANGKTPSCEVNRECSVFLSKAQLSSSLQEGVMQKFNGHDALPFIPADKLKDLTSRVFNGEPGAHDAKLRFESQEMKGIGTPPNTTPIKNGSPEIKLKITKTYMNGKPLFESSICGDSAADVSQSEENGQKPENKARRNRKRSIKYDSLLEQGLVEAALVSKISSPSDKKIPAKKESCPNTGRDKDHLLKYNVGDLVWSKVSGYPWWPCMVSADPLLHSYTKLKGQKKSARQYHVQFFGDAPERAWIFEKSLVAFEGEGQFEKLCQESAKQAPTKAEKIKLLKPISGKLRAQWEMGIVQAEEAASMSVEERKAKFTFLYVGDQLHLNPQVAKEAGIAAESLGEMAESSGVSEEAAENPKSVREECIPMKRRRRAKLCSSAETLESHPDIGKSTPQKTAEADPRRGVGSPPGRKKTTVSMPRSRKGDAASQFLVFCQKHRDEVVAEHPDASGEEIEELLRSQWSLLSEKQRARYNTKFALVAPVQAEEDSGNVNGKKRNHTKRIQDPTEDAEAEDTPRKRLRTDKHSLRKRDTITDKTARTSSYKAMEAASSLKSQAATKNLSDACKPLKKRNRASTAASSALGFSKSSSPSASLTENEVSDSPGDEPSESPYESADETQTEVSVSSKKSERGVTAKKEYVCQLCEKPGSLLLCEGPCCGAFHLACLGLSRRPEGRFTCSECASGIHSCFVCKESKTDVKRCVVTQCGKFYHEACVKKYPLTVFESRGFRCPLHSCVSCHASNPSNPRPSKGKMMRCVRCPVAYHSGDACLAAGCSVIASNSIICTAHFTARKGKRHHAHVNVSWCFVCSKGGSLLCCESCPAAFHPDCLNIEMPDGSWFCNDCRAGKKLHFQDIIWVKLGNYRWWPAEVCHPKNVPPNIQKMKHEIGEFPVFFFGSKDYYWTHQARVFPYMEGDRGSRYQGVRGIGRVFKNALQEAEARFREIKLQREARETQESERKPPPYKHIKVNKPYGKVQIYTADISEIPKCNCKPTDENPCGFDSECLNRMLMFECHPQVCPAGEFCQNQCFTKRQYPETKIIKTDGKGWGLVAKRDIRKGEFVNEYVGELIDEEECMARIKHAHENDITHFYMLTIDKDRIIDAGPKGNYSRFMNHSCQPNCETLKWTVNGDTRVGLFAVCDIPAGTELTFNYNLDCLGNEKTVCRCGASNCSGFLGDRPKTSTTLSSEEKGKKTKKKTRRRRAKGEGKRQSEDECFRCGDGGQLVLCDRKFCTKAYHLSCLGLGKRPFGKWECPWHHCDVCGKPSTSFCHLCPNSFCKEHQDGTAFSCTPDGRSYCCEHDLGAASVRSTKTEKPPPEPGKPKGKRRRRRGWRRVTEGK

[3] = A549 cell cytotoxicity, dose response, cytotoxicity control, plate reader, cherry-pick, antagonist series (AID 743412); type: functional, cell-based
[4] = blockade of melanocortin 4 receptor signaling – cell-based, plate reader, cherry pick, counter-screen for LGR2 antagonist project, dose response (AID 743444); type: functional;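 further: transfected HEK 293 cells stimulated with alpha-MSH peptide; potency of inhibitors of the alpha-MSH evoked signal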
[5] = viability loss in HEK293 cells – cell-based, plate reader, cherry-picked samples, cytotoxicity control, dose response (AID 743446); type: functional
[6] = toxicity toward HepG2 liver cells – cell-based, plate reader, cherry-pick, antagonist series, cytotoxicity control, dose response (AID 743416); type: functional
[7] = biological target: T2, Protein RecA (Mycobacterium tuberculosis, UniProt P9WHJ3); experiment: Fluorescence Cell-Free Homogeneous Dose Retest to Identify Inhibitors of RecA-Intein Splicing Activity. [Related pubchem assays (depositor defined):AID2097, AID2223, AID489010, AID492950]; type: functional
T2 sequence (P9WHJ3 whole entry): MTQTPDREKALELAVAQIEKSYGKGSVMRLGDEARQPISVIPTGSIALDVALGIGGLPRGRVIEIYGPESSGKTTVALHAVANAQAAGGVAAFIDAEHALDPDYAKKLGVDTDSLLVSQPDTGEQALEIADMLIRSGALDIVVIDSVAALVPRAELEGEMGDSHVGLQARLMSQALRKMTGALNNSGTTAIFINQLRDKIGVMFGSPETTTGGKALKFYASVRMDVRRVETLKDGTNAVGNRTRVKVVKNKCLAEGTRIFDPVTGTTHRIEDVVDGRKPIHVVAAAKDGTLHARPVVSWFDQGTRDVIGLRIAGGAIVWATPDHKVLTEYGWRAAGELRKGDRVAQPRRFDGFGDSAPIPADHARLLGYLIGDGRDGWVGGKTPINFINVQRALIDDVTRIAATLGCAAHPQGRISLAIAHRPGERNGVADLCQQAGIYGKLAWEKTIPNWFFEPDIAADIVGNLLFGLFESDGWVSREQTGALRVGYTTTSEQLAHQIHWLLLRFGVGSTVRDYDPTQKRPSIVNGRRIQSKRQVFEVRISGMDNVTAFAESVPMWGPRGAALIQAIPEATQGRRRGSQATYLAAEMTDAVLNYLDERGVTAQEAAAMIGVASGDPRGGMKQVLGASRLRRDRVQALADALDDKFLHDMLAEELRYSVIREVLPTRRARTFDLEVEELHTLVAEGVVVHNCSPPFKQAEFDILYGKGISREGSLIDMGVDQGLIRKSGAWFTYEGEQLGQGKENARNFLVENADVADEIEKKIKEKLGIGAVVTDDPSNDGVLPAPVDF

[8] = biological target: T3, Tyrosyl-DNA phosphodiesterase 2 (Homo sapiens, UniProt O95551); experiment: potency against TDP2 phosphodiesterase activity – biochemical, epi absorbance, IC50, dose response (AID 743297)
T3 sequence (O95551 whole entry): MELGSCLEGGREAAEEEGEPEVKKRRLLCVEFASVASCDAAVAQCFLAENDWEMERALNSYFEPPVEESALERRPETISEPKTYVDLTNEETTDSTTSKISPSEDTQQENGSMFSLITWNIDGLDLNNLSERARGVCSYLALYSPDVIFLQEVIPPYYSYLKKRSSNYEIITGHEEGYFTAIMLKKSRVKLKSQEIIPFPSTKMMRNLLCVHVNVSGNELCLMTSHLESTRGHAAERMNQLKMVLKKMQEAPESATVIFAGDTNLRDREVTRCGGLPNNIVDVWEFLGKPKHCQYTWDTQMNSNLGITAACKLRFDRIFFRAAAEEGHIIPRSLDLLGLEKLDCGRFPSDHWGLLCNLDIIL

[9] = biological target: T4, RNA-binding protein pos-1 (Caenorhabditis elegans, UniProt G5EF15); experiment: disruptors of C. elegans POS-1 RNA interaction – biochemical, fluorescence polarization, dose response (AID 1964);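 further: purified POS-1 fused to maltose binding protein made in E. coli; potency of compounds blocking POS-1 binding to fluorescent RNA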
T4 sequence (G5EF15 whole entry): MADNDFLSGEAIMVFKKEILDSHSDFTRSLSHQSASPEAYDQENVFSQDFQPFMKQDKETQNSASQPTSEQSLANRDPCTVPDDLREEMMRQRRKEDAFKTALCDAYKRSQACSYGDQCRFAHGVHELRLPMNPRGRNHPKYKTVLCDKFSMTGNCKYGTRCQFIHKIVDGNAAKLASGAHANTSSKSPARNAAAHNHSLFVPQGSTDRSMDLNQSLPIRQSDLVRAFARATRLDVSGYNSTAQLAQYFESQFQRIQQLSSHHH

[10] = biological target: T5, Zinc finger protein mex-5 (Caenorhabditis elegans, UniProt Q9XUB2); experiment: potency of MEX-5 RNA-binding blockers – biochemical, C. elegans, fluorescence polarization, dose response (AID 1960)
T5 sequence (Q9XUB2 whole entry): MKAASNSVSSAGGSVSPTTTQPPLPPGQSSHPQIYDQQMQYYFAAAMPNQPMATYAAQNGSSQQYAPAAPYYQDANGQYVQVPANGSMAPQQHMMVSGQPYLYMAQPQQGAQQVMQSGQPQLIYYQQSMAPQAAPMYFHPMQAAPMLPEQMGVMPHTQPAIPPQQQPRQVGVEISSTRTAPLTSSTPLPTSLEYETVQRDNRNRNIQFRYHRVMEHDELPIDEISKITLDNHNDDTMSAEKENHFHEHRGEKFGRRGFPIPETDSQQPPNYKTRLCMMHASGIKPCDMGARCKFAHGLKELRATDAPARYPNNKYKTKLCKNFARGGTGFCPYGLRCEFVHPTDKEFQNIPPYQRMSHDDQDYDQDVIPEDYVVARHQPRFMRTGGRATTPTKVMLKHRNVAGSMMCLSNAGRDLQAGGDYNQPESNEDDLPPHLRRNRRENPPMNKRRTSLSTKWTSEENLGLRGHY

[11] = blockers of bursicon-stimulated LGR2 cAMP reporter – cell-based, HEK293, CRE-luciferase reporter, cherry pick, set 2, dose response (AID 743343); type: functional;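 further: transfected cells were stimulated with diluted bursicon conditioned medium after compound addition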
[12] = luciferase reporter signal suppression in cells – H4 neuroglioma cells, luminescence, dose response (AID 1990); type: functional, cell-based
[13] = alpha-synuclein stem-loop luciferase translation blockers – H4 neuroglioma cells, luminescence, confirmation (AID 1988); type: functional, cell-based
[14] = biological target: T6, Galanin receptor type 3 (Homo sapiens, UniProt O60755); experiment: Fluorescence-based cell-based primary high throughput dose response assay to identify antagonists of the Galanin Receptor 3 (GalR3).; type: functional
T6 sequence (O60755 whole entry): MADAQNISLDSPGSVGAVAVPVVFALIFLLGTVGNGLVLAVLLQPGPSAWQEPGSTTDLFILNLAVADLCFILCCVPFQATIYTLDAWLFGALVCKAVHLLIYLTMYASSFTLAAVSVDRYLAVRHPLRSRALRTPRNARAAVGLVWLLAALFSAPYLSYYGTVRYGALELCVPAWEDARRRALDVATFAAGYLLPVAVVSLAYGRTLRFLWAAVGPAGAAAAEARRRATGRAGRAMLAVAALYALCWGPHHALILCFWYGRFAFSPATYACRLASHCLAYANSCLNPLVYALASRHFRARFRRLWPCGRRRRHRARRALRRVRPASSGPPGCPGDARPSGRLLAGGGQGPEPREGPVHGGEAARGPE

[15] = biological target: Nonstructural protein 1 (Influenza A virus, UniProt Q194T2); type: functional, Influenza A virus (A/California/07/2009(H1N1))
[16] = NIH-3T3 fibroblast cytotoxicity, dose response, cytotoxicity control, cell-based, fluorescence, Alamar Blue, secondary assay (AID 2327); type: functional;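 further: NIH-3T3 mouse fibroblasts cultured with fluconazole at 8 µg/mL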
[17] = fluconazole-exposed Candida albicans growth modulators – fluorescence, retest, confirmation (AID 2467); type: functional, cell-based
[18] = Luminescence Cell-Based Dose Response HTS to Identify Inhibitors of 5'UTR Stem-Loop Driven Prion Protein mRNA Translation in H4 Neuroglioblastoma Cells. [Related pubchem assays: 1827 (Project Summary), 1813 (Primary HTS)]; type: functional
[19] = cells; type: functional, cell-based; settings: HEK-CNG
[20] = biological target: T7, COUP transcription factor 2 (Homo sapiens, UniProt P24468); experiment: Luminescence-based cell-based high throughput dose response assay to identify inhibitors of COUP-TFII (NR2F2).; type: functional;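 further: HEK293 cells transiently cotransfected with COUP-TFII expression vector and reporter; luciferase reporter luminescence driven by COUP-TFII from the pX2-168 reporter plasmid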
T7 sequence (P24468 whole entry): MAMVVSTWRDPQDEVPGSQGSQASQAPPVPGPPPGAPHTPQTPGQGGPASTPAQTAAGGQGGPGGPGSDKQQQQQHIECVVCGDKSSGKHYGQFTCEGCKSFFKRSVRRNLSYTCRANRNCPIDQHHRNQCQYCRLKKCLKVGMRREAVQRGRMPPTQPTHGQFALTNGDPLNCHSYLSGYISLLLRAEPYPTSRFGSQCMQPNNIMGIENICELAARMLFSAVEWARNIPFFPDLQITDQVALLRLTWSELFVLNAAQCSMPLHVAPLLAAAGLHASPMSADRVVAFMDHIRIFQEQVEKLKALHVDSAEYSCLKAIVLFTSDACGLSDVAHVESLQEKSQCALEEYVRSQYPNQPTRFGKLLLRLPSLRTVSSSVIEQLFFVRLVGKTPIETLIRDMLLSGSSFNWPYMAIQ

[21] = reduction of Shn3 3'UTR-driven luciferase in osteoblasts – cell-based, Clone20 osteoblasts, firefly luciferase, cherry-picked, dose response (AID 624132); type: functional;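 further: firefly luciferase luminescence from reporter carrying the Shn3 3'UTR in osteoblasts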
[22] = loss of viability in HepG2 cells – cell-based, CellTiter-Glo, cherry-picked, cytotoxicity control for Shn3 inhibitor project, dose response (AID 624134); type: functional
[23] = non-specific 3'UTR reporter inhibition in Clone20-Shn3RL – cell-based, Renilla luciferase, cherry-picked, counter-screen for Shn3 inhibitor project, dose response (AID 624133); type: functional

Chain of Potassium channel subfamily K member 9 (Q9NPC2 whole entry): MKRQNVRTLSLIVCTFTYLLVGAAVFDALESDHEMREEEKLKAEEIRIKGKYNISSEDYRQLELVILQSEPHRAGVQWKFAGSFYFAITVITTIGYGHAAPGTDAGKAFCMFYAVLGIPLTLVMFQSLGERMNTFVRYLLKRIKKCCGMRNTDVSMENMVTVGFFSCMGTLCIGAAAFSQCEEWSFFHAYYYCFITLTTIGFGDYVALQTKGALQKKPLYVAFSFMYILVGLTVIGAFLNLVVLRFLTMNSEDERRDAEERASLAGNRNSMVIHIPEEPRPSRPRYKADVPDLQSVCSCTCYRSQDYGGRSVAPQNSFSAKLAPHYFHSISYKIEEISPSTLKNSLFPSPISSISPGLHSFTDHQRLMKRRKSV
Chain of Nonstructural protein 1 (Q194T2 whole entry): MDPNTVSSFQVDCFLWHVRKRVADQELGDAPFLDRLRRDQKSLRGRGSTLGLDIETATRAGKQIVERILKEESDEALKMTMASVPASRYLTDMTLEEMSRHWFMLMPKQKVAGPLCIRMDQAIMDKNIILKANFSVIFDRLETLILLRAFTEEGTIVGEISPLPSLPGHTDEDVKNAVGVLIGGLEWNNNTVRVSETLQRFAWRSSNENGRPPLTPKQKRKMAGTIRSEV

O=C(Nc1cccc(NC(=O)c2ccccc2Cl)c1)c1ccccc1
IC50 [1]: 33.4 µM (active)

CCOc1ccccc1NC(=O)CSc1nc(O)c2c(C(F)(F)F)cc(-c3cccs3)nc2n1
AC50 [2]: > 20 µM (inactive)

C[C@@H]1CN([C@H](C)CO)C(=O)Cc2cc(NC(=O)Nc3ccc(F)cc3)ccc2O[C@@H]1CN(C)CC1CCCCC1
AC50 [3]: 15 µM (active) | AC50 [4]: 56.6 µM (active) | AC50 [5]: 16.2 µM (active) | AC50 [6]: 14.6 µM (active)

Cc1cccc(C(=O)Nc2cccc(NC(=O)c3ccccc3C)c2)c1
IC50 [1]: 0.94 µM (active)

S=C(Nc1ccc2nsnc2c1)N1CCCCCC1
EC50 [7]: 46.7 µM (active) | IC50 [8]: > 128 µM (inactive)

CCCC1Nc2ccc(C(=O)O)cc2C2C=CCC12 (stereo not drawn)
AC50 [2]: 16.8 µM (active) | EC50 [9]: 23.8 µM (active) | EC50 [10]: 14.5 µM (active)

N#C[C@H]1[C@H](c2ccc(C#Cc3ccccc3F)cc2)[C@H](CO)N1C(=O)C1CCCC1
AC50 [3]: 23.6 µM (active) | AC50 [4]: 4.57 µM (active) | AC50 [5]: 8.77 µM (active) | AC50 [6]: 34.5 µM (active) | AC50 [11]: 5.64 µM (active)

CC[n+]1c(/C=C/C=C/c2ccc(N(C)C)cc2)sc2ccccc21.[O-][Cl+3]([O-])([O-])[O-]
EC50 [12]: 43.6 µM (active) | AC50 [2]: 7.84 µM (active) | EC50 [13]: 0.666 µM (active) | IC50 [14]: > 29.9 µM (inactive) | IC50 [15]: 5.05 µM (active) | EC50 [16]: 82.9 µM (active) | EC50 [17]: < 0.03 µM (active) | EC50 [18]: 11.2 µM (active) | EC50 [19]: > 29.9 µM (inactive)

Cc1c(C)n(Cc2ccccc2)c2ncnc(Cl)c12
IC50 [20]: 10.7 µM (inactive)

CC(=O)c1c(C)[nH]c(C(=O)COc2cc(C)ccc2C(C)C)c1C
AC50 [21]: 1.25 µM (active) | IC50 [14]: 1.24 µM (active) | AC50 [22]: 3.12 µM (active) | IC50 [20]: 5.74 µM (active) | AC50 [23]: 8.41 µM (active) | EC50 [19]: > 29.9 µM (inactive)
